Measurements published in US20250109156A1, “INDOLE-CONTAINING MACROCYCLIC COMPOUNDS AND USES THEREOF” (JIANGSU AOSAIKANG PHARMACEUTICAL CO., LTD., priority 2022, published 2025).
pIC50: −log10 of the molar value.

Columns and labels:
CDK7/CyclinH/MAT1 = CDK7/CyclinH/MAT1 (Homo sapiens (Human), UniProt P50613); test: In vitro CDK7/CyclinH/MAT1 enzyme activity assay (TR-FRET); type: biochemical; settings: Ulight-MBP peptide, 25° C. 60 minutes
Method: Experimental Example 1: In Vitro CDK7/[…] Enzyme Activity Assay
CDK7/CyclinH/MAT1 was purchased from CARNA. Ulight-MBP peptide, Eu-MBP antibody, and 1× detection buffer were purchased from PerkinElmer. High-purity ATP was purchased from Promega. EDTA was purchased from Sigma. Nivo multimode microplate reader (PerkinElmer).
(§1) Preparation of kinase buffer: the kinase buffer containing 50 mM HEPES, 1 mM EDTA, 10 mM MgCl2, 0.01% Brij-35, pH 7.4.
(§2) 2.38 g of HEPES, 58 mg of EDTA, 406 mg of MgCl2, and 20 mg of Brij-35 were added to 200 mL of buffer, and the pH was adjusted to 7.4.
(§3) 100 μL of 1 M EDTA stock solution was mixed with 0.625 μL of 1× detection buffer and 1725 μL of distilled water to prepare the stop solution.
Enzyme, Ulight-MBP peptide, ATP, and inhibitors were diluted with the kinase buffer.
The Eu-MBP antibody was diluted to a concentration of 8 nM/L using detection buffer.
The compounds to be tested were 5-fold diluted with a multi-channel pipette to the 8th concentration, i.e., from 40 μM to 0.512 nM, with a final DMSO concentration of 4%. The experiment was set up in duplicate wells. 2.5 μL of each concentration gradient of the inhibitor was added to the microplate, followed by 5 μL of CDK7/CyclinH/MAT1 enzyme (5 ng), and 2.5 μL of a mixture of substrate and ATP (4 mM ATP, 50 nM Ulight-MBP peptide). At this point, the final concentration gradient of the compound was 10 μM diluted to 0.128 nM. The reaction system was reacted at 25° C. for 60 minutes. After the reaction, 5 μL of stop solution was added to each well, and the reaction was continued at 25° C. for 5 minutes. After stopping the reaction, 5 μL of Eu-MBP antibody dilution was added to each well, and the mixture was reacted at 25° C. for 60 minutes. Data were then collected using the PerkinElmer Nivo multimode microplate reader in TR-FRET mode (excitation wavelength: 320 nm, emission wavelength: 665 nm).
Using the equation (Sample−Min)/(Max−Min)*100% to convert the raw data into inhibition rate, the IC50 value may be obtained by curve fitting with four parameters (obtained by “log (inhibitor) vs. response—Variable slope” mode in GraphPad Prism). Table 1 provides the CDK7/CyclinH/MAT1 enzymatic inhibitory activity of the compounds of the present disclosure.

CDK9-CyclinT1 = CDK9-CyclinT1 (Homo sapiens (Human), UniProt P50750); test: In vitro CDK9-CyclinT1 enzyme activity assay (TR-FRET); type: biochemical; settings: Ulight-4E-BP1 peptide, 25° C. 120 minutes
Method: Experimental Example 3: In Vitro CDK9/[…] Enzyme Activity Assay
CDK9-CyclinT1 was purchased from CARNA. Ulight-4E-BP1 peptide, Eu-anti-phospho-tyrosine antibody, and 1× detection buffer were purchased from PerkinElmer. High-purity ATP was purchased from Promega. EDTA was purchased from Sigma. Nivo multimode microplate reader (PerkinElmer).
as §1, §2, §3
Enzyme, Ulight-4E-BP1 peptide, ATP, and inhibitors were diluted with the kinase buffer.
The Eu-anti-phospho-tyrosine antibody was diluted to a concentration of 8 nM/L using detection buffer.
The compounds to be tested were 4-fold diluted with a multi-channel pipette to the 8th concentration, i.e., from 400 μM to 24.4 nM, with a final DMSO concentration of 4%. The experiment was set up in duplicate wells. 2.5 μL of each concentration gradient of the inhibitor was added to the microplate, followed by 5 μL of CDK9-CyclinT1 enzyme (2 ng), and 2.5 μL of a mixture of substrate and ATP (8 mM ATP, 50 nM Ulight-4E-BP1 peptide). At this point, the final concentration gradient of the compound was 100 μM diluted to 6.1 nM. The reaction system was reacted at 25° C. for 120 minutes. After the reaction, 5 μL of stop solution was added to each well, and the reaction was continued at 25° C. for 5 minutes. After stopping the reaction, 5 μL of Eu-anti-phospho-tyrosine antibody dilution was added to each well, and the mixture was reacted at 25° C. for 60 minutes. Data were then collected using the PerkinElmer Nivo multimode microplate reader in TR-FRET mode (excitation wavelength: 320 nm, emission wavelength: 665 nm).
Using the equation (Sample−Min)/(Max−Min)*100% to convert the raw data into inhibition rate, the IC50 value may be obtained by curve fitting with four parameters (obtained by “log (inhibitor) vs. response—Variable slope” mode in GraphPad Prism). Table 1 provides the CDK9-CyclinT1 enzymatic inhibitory activity of the compounds of the present disclosure.

HCC70 cells = test: In vitro HCC70 cell activity assay (CellTiter-Glo proliferation); type: cell-based; settings: Homo sapiens, 96 h, 4 days incubation
Method: Experimental Example 4: In Vitro HCC70 Cell Activity Assay
1640 culture medium, fetal bovine serum, penicillin/streptomycin antibiotics were purchased from WISENT. CellTiter-Glo (cell viability chemiluminescence detection reagent) reagent was purchased from Promega. HCC70 cell line was purchased from Nanjing Cobioer Biosciences Co. Ltd. Nivo multimode microplate reader (PerkinElmer).
The HCC70 cells were seeded in a white 96-well plate, with 80 μL of cell suspension per well, containing 6000 HCC70 cells each. The cell plate was incubated overnight in a CO2 incubator. The compounds to be tested were 3-fold diluted with a multi-channel pipette to the 8th concentration, i.e., diluted from 2 mM to […], and the experiment was set up in duplicate wells. 78 μL of culture medium was added to an intermediate plate, and then 2 μL of gradient diluted compound per well was transferred to the intermediate plate according to the corresponding position. After mixing well, the compound was transferred to the cell plate at 20 μL per well. The concentration of the compound transferred to the cell plate ranged from 10 μM to 1.52 nM. The cell plate was incubated in a CO2 incubator for 4 days. Another cell plate was prepared to measure the signal on the day of drug addition as the maximum value (denoted as Max in the equation below) for data analysis. 25 μL of cell viability chemiluminescence detection reagent was added to each well of this cell plate, and incubated at room temperature for 10 minutes to stabilize the luminescent signal. A multimode microplate reader was used for reading.
25 μL of cell viability chemiluminescence detection reagent was added to each well of this cell plate, and incubated at room temperature for 10 minutes to stabilize the luminescent signal. A multimode microplate reader was used for reading.
Using the equation (Sample−Min)/(Max−Min)*100% to convert the raw data into inhibition rate, the IC50 value may be obtained by curve fitting with four parameters (obtained by “log (inhibitor) vs. response—Variable slope” mode in GraphPad Prism). Table 1 provides the inhibitory activity of the compounds of the present disclosure on the proliferation of HCC70 cells.

Sequence of CDK9-CyclinT1 (P50750 whole entry): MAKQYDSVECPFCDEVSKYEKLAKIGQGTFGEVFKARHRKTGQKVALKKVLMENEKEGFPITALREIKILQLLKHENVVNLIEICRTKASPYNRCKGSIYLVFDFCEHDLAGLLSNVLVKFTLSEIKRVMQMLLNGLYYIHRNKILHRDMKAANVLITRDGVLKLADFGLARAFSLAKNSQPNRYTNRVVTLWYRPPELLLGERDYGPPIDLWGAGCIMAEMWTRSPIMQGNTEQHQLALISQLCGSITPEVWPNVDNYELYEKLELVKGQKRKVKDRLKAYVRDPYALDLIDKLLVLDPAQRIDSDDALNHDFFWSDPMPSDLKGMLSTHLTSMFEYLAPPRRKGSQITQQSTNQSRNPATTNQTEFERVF
Sequence of CDK9-CyclinT1 (O60563 whole entry partner): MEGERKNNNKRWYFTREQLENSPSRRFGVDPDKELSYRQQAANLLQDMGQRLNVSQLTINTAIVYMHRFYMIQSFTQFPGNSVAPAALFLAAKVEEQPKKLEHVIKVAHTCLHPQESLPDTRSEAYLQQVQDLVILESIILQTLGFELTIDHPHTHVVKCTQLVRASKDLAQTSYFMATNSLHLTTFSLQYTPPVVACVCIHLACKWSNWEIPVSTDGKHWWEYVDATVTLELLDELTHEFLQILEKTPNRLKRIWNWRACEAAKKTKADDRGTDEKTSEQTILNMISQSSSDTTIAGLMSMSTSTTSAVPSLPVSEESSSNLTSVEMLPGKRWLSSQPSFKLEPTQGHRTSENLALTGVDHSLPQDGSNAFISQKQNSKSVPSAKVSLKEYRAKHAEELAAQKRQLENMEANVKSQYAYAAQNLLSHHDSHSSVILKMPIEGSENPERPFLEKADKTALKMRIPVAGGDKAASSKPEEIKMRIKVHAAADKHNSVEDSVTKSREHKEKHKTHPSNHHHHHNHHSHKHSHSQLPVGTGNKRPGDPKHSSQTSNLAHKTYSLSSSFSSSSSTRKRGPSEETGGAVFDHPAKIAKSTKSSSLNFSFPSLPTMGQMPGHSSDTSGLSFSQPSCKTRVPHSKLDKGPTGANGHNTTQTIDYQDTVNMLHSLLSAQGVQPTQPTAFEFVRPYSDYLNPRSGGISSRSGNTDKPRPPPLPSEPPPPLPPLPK
Sequence of CDK7/CyclinH/MAT1 (P50613 whole entry): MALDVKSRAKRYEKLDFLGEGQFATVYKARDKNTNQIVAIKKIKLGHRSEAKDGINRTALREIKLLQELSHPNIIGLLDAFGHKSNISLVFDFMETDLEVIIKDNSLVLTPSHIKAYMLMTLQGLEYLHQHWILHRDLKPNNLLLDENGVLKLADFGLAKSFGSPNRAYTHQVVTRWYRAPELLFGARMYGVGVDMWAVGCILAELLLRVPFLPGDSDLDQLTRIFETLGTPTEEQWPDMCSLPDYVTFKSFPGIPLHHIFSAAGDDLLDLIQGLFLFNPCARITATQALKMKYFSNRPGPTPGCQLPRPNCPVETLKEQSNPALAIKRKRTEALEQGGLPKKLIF
Sequence of CDK7/CyclinH/MAT1 (P51946 whole entry partner): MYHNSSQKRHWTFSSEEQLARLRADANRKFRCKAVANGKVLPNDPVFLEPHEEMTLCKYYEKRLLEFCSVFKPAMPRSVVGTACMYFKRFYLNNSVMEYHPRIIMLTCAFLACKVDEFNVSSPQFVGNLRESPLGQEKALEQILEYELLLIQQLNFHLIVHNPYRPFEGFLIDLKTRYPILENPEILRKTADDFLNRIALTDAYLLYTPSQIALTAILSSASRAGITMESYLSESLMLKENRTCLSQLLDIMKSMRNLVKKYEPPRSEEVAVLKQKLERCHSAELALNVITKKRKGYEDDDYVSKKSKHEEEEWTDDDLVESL
Sequence of CDK7/CyclinH/MAT1 (P51948 whole entry partner): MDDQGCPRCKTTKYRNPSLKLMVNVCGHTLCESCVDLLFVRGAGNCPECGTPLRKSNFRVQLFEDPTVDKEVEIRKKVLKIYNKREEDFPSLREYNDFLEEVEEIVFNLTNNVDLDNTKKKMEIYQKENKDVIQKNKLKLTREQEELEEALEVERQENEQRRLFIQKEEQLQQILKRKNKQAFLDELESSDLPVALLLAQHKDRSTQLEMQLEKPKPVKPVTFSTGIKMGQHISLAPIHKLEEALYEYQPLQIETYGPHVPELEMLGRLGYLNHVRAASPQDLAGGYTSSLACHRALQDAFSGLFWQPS

Compound	pIC50 (CDK7/CyclinH/MAT1)	pIC50 (CDK9-CyclinT1)	pIC50 (HCC70 cells)
CN1CCCCN2CCCC[C@@H](C2)Nc2ncc(C(F)(F)F)c(n2)-c2c[nH]c3c(P(C)(C)=O)c(ccc23)C1=O [Compound 3]	8.96	< 6.00	8.85
CP(C)(=O)c1c2ccc3c(c[nH]c13)-c1nc(ncc1C(F)(F)F)N[C@H]1CCCN(CCCCCCO2)C1 [Compound 4]	8.80	< 6.00	9.22
CP(C)(=O)c1c2ccc3c(c[nH]c13)-c1nc(ncc1C(F)(F)F)N[C@H]1CCCN(CCCCNC2=O)C1 [Compound 5]	8.92	< 6.00	9.00
CP(C)(=O)c1c2ccc3c(c[nH]c13)-c1nc(ncc1C(F)(F)F)N[C@H]1CCCCN(CCCCNC2=O)C1 [Compound 6]	8.85	< 6.00	8.74
CN1CCCCN2CCC[C@@H](C2)Nc2ncc(C(F)(F)F)c(n2)-c2c[nH]c3c(P(C)(C)=O)c(ccc23)C1=O [Formate of compound 1]	9.00	6.14	> 8.82
